Measured values published in patent publication US20040186273A1 (V.I. Technologies, Inc., priority 2000, published 2004).

Key:
[1] = target: prion from scrapie infected hamster brain (PrPsc) (Mesocricetus auratus, UniProt P04273)
[2] = target: prion from infected hamster brain spiked into plasma (Mesocricetus auratus, UniProt P04273)
[3] = target: PrPc from normal brain homogenate (Mesocricetus auratus, UniProt P04273)
Chain of PrPc from normal brain homogenate (P04273 23-231 limits assumed): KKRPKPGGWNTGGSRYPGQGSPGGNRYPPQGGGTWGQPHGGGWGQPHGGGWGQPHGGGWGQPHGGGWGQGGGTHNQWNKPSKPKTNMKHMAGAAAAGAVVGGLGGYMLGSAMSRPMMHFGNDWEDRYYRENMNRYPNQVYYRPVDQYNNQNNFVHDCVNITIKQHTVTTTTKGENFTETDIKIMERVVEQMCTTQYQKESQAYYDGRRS

Chain of prion from scrapie infected hamster brain (PrPsc) (P04273 23-231 limits assumed): as above
Chain of prion from infected hamster brain spiked into plasma (P04273 23-231 limits assumed): as above

Substance | binding of prion to resin (prion signal in flow through) [1] | PrPc bound to resin (chemiluminescence signal, +3F4 vs -3F4) [3] | further results
acetyl (dF)LLHPI [Peptide 76] | failed to bind all prion |  | 
IQIWIF [Peptide 110] | bound to the column |  | binding of prion to resin (prion signal in flow through) [2]: bound all prion
RWIISL [Peptide 113] |  | strongest binders | 
RYHVYF [Peptide 71] | bound all prion |  | 
YVFNWY [Peptide 87] | bound all prion |  | 
GFFFWW [Peptide 89] | bound all prion |  | 
LLIWIP [Peptide 84] |  | not stable enough to resist the washing protocol | 
WLVWIA [Peptide 116] |  | strongest binders | 
VFEYIK [Peptide 115] |  | strongest binders | 
IFFWIK [Peptide 112] |  | strongest binders | 
LRVIIS [Peptide 96] |  | much larger signal than the controls | 
HHHPQT [Peptide 55] | let prion flow through |  | prion binding, dependence on copper [1]: appears to bind prion only in the absence of copper
WLYWIP [Peptide 85] |  | not stable enough to resist the washing protocol | 
acetyl (dF)LLHPI [Peptide 75, reference compound] |  |  | binding of prion to resin (prion signal in flow through) [2]: did not bind prion strongly enough to retain all detectable protein
acetylated (dR)YHVYF [Peptide 83, reference compound] |  |  | binding of prion to resin (prion signal in flow through) [2]: bound all prion
